{"source": "patent US10350187B2", "about": "“Methods and composition for suppression of pathogenic bacterial growth, fungal growth, or microbial growth in or on skin” (priority 2017, dated 2019)", "key": {"M. globosa [1]": {"tested_on": "M. globosa", "assay": "M. globosa growth on solid media with composition and individual component supplementation (Example 3)", "conditions": "individual component supplementation, after 5 days"}, "M. globosa [2]": {"tested_on": "M. globosa", "assay": "M. globosa growth in liquid MLNB media (Example 3)", "format": "cell-based", "description": "(§1) At appropriate time intervals (0 h, 24 h, 48 h, 72 h, and 168 h) 1 mL aliquots of the cell suspension were withdrawn and plated on MLNA. All the experiments were performed in duplicate."}, "M. restricta MYA-4611 [3]": {"tested_on": "M. restricta MYA-4611", "assay": "M. restricta growth on solid media with composition and individual component supplementation (Example 3)", "conditions": "individual component supplementation, after 5 days"}, "M. restricta MYA-4611 [4]": {"tested_on": "M. restricta MYA-4611", "assay": "M. restricta growth in liquid MLNB media (Example 3)", "format": "cell-based", "description": "as §1"}}, "data": [{"molecule": "NC(=O)c1cccnc1", "note": "[Niacinamide, niacinamide, reference compound]", "values": [{"measurement": "growth on solid media", "setting": "M. globosa [1]; 0.5% niacinamide", "result": "support some growth"}, {"measurement": "M. globosa growth in liquid MLNB media", "setting": "M. globosa [2]; 0.5% Niacinamide, t = 24 h", "result": 2, "unit": "cfu/mL"}, {"measurement": "M. globosa growth in liquid MLNB media", "setting": "M. globosa [2]; 0.5% Niacinamide, t = 48 h", "result": 0, "unit": "cfu/mL"}, {"measurement": "M. globosa growth in liquid MLNB media", "setting": "M. globosa [2]; 0.5% Niacinamide, t = 72 h", "result": 0, "unit": "cfu/mL"}, {"measurement": "M. globosa growth in liquid MLNB media", "setting": "M. globosa [2]; 0.5% Niacinamide, t = 168 h", "result": 0, "unit": "cfu/mL"}, {"measurement": "growth on solid media", "setting": "M. restricta MYA-4611 [3]; 0.5% niacinamide", "result": "support some growth"}, {"measurement": "M. restricta growth in liquid MLNB media", "setting": "M. restricta MYA-4611 [4]; 0.5% Niacinamide, t = 24 h", "result": 20, "unit": "cfu/mL"}, {"measurement": "M. restricta growth in liquid MLNB media", "setting": "M. restricta MYA-4611 [4]; 0.5% Niacinamide, t = 48 h", "result": 5, "unit": "cfu/mL"}, {"measurement": "M. restricta growth in liquid MLNB media", "setting": "M. restricta MYA-4611 [4]; 0.5% Niacinamide, t = 72 h", "result": 0, "unit": "cfu/mL"}, {"measurement": "M. restricta growth in liquid MLNB media", "setting": "M. restricta MYA-4611 [4]; 0.5% Niacinamide, t = 168 h", "result": 0, "unit": "cfu/mL"}]}, {"molecule": "N[C@@H](CC(=O)O)C(=O)O", "note": "[L-Asp, L-aspartic acid]", "values": [{"measurement": "growth on solid media", "setting": "M. globosa [1]; 0.46% L-Asp", "result": "support some growth"}, {"measurement": "M. globosa growth in liquid MLNB media", "setting": "M. globosa [2]; 0.46% L-Asp, t = 24 h", "result": 14, "unit": "cfu/mL"}, {"measurement": "M. globosa growth in liquid MLNB media", "setting": "M. globosa [2]; 0.46% L-Asp, t = 48 h", "result": 10, "unit": "cfu/mL"}, {"measurement": "M. globosa growth in liquid MLNB media", "setting": "M. globosa [2]; 0.46% L-Asp, t = 72 h", "result": 6, "unit": "cfu/mL"}, {"measurement": "M. globosa growth in liquid MLNB media", "setting": "M. globosa [2]; 0.46% L-Asp, t = 168 h", "result": 1, "unit": "cfu/mL"}, {"measurement": "growth on solid media", "setting": "M. restricta MYA-4611 [3]; 0.46% L-Asp", "result": "support some growth"}, {"measurement": "M. restricta growth in liquid MLNB media", "setting": "M. restricta MYA-4611 [4]; 0.46% L-Asp, t = 24 h", "result": 15, "unit": "cfu/mL"}, {"measurement": "M. restricta growth in liquid MLNB media", "setting": "M. restricta MYA-4611 [4]; 0.46% L-Asp, t = 48 h", "result": 11, "unit": "cfu/mL"}, {"measurement": "M. restricta growth in liquid MLNB media", "setting": "M. restricta MYA-4611 [4]; 0.46% L-Asp, t = 72 h", "result": 10, "unit": "cfu/mL"}, {"measurement": "M. restricta growth in liquid MLNB media", "setting": "M. restricta MYA-4611 [4]; 0.46% L-Asp, t = 168 h", "result": 14, "unit": "cfu/mL"}]}, {"molecule": "conjugated linoleic acid [CLA]", "values": [{"measurement": "growth on solid media", "setting": "M. globosa [1]; 1.5% CLA", "result": "support some growth"}, {"measurement": "M. globosa growth in liquid MLNB media", "setting": "M. globosa [2]; 1.5% CLA, t = 24 h", "result": 2, "unit": "cfu/mL"}, {"measurement": "M. globosa growth in liquid MLNB media", "setting": "M. globosa [2]; 1.5% CLA, t = 48 h", "result": 0, "unit": "cfu/mL"}, {"measurement": "M. globosa growth in liquid MLNB media", "setting": "M. globosa [2]; 1.5% CLA, t = 72 h", "result": 0, "unit": "cfu/mL"}, {"measurement": "M. globosa growth in liquid MLNB media", "setting": "M. globosa [2]; 1.5% CLA, t = 168 h", "result": 0, "unit": "cfu/mL"}, {"measurement": "growth on solid media", "setting": "M. restricta MYA-4611 [3]; 1.5% CLA", "result": "support some growth"}, {"measurement": "M. restricta growth in liquid MLNB media", "setting": "M. restricta MYA-4611 [4]; 1.5% CLA, t = 24 h", "result": 7, "unit": "cfu/mL"}, {"measurement": "M. restricta growth in liquid MLNB media", "setting": "M. restricta MYA-4611 [4]; 1.5% CLA, t = 48 h", "result": 0, "unit": "cfu/mL"}, {"measurement": "M. restricta growth in liquid MLNB media", "setting": "M. restricta MYA-4611 [4]; 1.5% CLA, t = 72 h", "result": 0, "unit": "cfu/mL"}, {"measurement": "M. restricta growth in liquid MLNB media", "setting": "M. restricta MYA-4611 [4]; 1.5% CLA, t = 168 h", "result": 0, "unit": "cfu/mL"}]}]}
